Reference: PMC9866588, “Novel 7-Chloro-4-aminoquinoline-benzimidazole Hybrids as Inhibitors of Cancer Cells Growth: Synthesis, Antiproliferative Activity, in Silico ADME Predictions, and Docking” (Molecules, 2023)
Where a name gives a salt, the structure may show the parent alone. Read-outs that look alike come from different tables or passages of the source.

Key:
[1] = test system: MDCK1 (Madine–Darby canine kidney) cells; assay: MTT antiproliferative assay, MDCK1; format: cell-based; conditions: mean ± SD of three independent experiments
Protocol: (§1) The growth inhibition activity was assessed according to the slightly modified procedure performed at the National Cancer Institute, Developmental Therapeutics Program.
(§2) The examined compounds were dissolved in DMSO (1 × 10^−2 M). The experiments were carried out on seven human tumor cell lines and a normal cell line. The following cell lines were used: HeLa (human cervical adenocarcinoma; purchased from ATCC), CaCo-2 (human colorectal adenocarcinoma), MCF-7 (human breast adenocarcinoma), CCRF-CEM (human acute lymphoblastic leukemia), Hut78 (T-cell lymphoma), THP-1 (acute monocytic leukemia), Burkitt lymphoma (Raji), and MDCK1 (Madine–Darby canine kidney). The MDCK1 cells were used between 24 and 26 passages.
(§3) The adherent cells were cultured in Dulbecco’s modified Eagle medium—DMEM (Gibco, Termo Fisher Scientific Inc., Leicestershire, England, UK), supplemented with 10% heat-inactivated fetal bovine serum (FBS, Gibco, Termo Fisher Scientific Inc., Leicestershire, England, UK), 2 mM glutamine, and 100U/0.1mg penicillin/streptomycin. The cells in suspension were cultured in RPMI 1640 (Gibco, Termo Fisher Scientific Inc., Leicestershire, England, UK) medium, supplemented with 10% FBS (Gibco, Termo Fisher Scientific Inc., Leicestershire, England, UK), 2 mM glutamine, 1 mM sodium pyruvate, and 10 mM HEPES. The cells were grown in a humidified atmosphere under the conditions of 37 °C/5% of CO2 gas in the CO2 incubator (IGO 150 CELLlife^TM, JOUAN, Thermo Fisher Scientific, Waltham, MA, USA).
(§4) The adherent cells (HeLa, CaCo-2, MCF-7, and MDCK-1) were plated in 96-well flat bottom plates (Greiner, Frickenhausen, Austria) at a concentration of 2 × 10^4 cells/mL. The suspension cells (Raji, THP-1, CCRF-CEM and Hut78) were plated in 96-well microtiter plates (Sarstead, Newton, NC, USA) at a concentration of 1 × 10^5 cells/mL. Twenty-four hours later, the cells were treated with test agents in […] and incubated for a further 72 h. The working dilutions were freshly prepared on the day of testing. The solvent was also tested for eventual inhibitory activity by adjusting its concentration to be the same as in the working concentrations. After 72 h of incubation, the cell growth rate was evaluated by performing the MTT assay, which detects dehydrogenase activity in viable cells. For this purpose, upon completion of the incubation period, the growth medium was discarded and 50 μL of MTT was added to each well at a concentration of 5 mg/mL. After four hours of incubation at 37 °C, the water insoluble MTT-formazan crystals were dissolved in 150 μL of dimethyl-sulfoxide (DMSO) for the adherent cells and in 10% SDS with 0.01 mol/L HCl for the cells grown in suspension. The absorbance (OD, optical density) was measured on a microplate reader (iMark, BIO RAD, Hercules, CA, USA) at 595 nm.
(§5) The percentage of live cells was calculated as follows: % = OD (sample) − OD (background)/OD (control) − OD (background) × 100.
(§6) The optical density (OD) of the background for the adherent cells is the OD of the MTT solution and DMSO; the OD (background) for the suspension cells is the OD of the culture medium with MTT and 10% SDS with 0.01 mol/L HCl; the OD (control) is the OD of the cells grown without the tested compounds.
(§7) The calculation of the GI50 value curves and QC analysis was performed using the Excel tools and GraphPadPrism software (La Jolla, CA, USA), v. 5.03. Briefly, individual concentration effect curves are generated by plotting the logarithm of the concentration of the tested compounds (X) vs. the corresponding percent inhibition values (Y) using the least squares fit. The best-fit GI50 values are calculated using log (inhibitor) versus normalized response—variable slope equation, where Y Ľ 100/(1 ţ 10 ((LogIC50 _ X) × HillSlope)). The QC criteria parameters (Z0, S:B, R2, HillSlope) were checked for every GI50 curve.

[2] = test system: HeLa (human cervical adenocarcinoma) cells; assay: MTT antiproliferative assay, HeLa; format: cell-based; conditions: 72 h, mean ± SD of three independent experiments
Protocol: as §1, §2, §3, §4, §5, §6, §7

[3] = test system: CaCo-2 (human colorectal adenocarcinoma) cells; assay: MTT antiproliferative assay, CaCo-2; format: cell-based; conditions: 72 h, mean ± SD of three independent experiments
Protocol: as §1, §2, §3, §4, §5, §6, §7

[4] = test system: MCF-7 (human breast adenocarcinoma) cells; assay: MTT antiproliferative assay, MCF-7; format: cell-based; conditions: MCF7, 72 h, mean ± SD of three independent experiments
Protocol: as §1, §2, §3, §4, §5, §6, §7

[5] = test system: CCRF-CEM (human acute lymphoblastic leukemia) cells; assay: MTT antiproliferative assay, CCRF-CEM; format: cell-based; conditions: Homo sapiens, CCRF-CEM; 72 h, MTT, mean ± SD of three independent experiments
Protocol: as §1, §2, §3, §4, §5, §6, §7

[6] = test system: THP-1 (acute monocytic leukemia) cells; assay: MTT antiproliferative assay, THP-1; format: cell-based, human; conditions: Homo sapiens, THP-1; 72 h, MTT, mean ± SD of three independent experiments; read-out: GI50 THP1
Protocol: as §1, §2, §3, §4, §5, §6, §7

[7] = test system: Raji (Burkitt lymphoma) cells; assay: MTT antiproliferative assay, Raji; format: cell-based, human; conditions: Homo sapiens, Raji; 72 h, MTT, mean ± SD of three independent experiments
Protocol: as §1, §2, §3, §4, §5, §6, §7

[8] = test system: Hut78 (T-cell lymphoma) cells; assay: MTT antiproliferative assay, HuT78; format: cell-based, human; conditions: Homo sapiens, HuT78; 72 h, MTT, mean ± SD of three independent experiments
Protocol: as §1, §2, §3, §4, §5, §6, §7

[9] = test system: normal (MDCK1) and tumor cell lines; assay: MTT antiproliferative assay, ranges stated over several cell lines; format: cell-based; conditions: for GI50: MDCK1
Protocol: as §1, §2, §3, §4, §5, §6, §7

[10] = Canis lupus familiaris, MDCK1, 72 h

Row | GI50 [2] [µM] | GI50 [3] [µM] | GI50 [4] [µM] | GI50 [5] [µM] | GI50 [6] [µM] | GI50 [7] [µM] | GI50 [8] [µM] | SMILES | GI50 [1, 10] [µM] | GI50 ([9]; leukemia and lymphoma cell lines, read-out: GI50 range, leukemia and lymphoma cells) [µM] | GI50 ([1]; 72 h) [µM] | GI50 ([9]; range over tumor cell lines, read-out: GI50 range, tumor cell lines) [µM] | GI50 / inhibitory potential, normal and tumor cells ([9]; over all tested cell lines)
1 | 11.8 ± 1.2 | 1.1 ± 0.1 | 11.1 ± 1.6 | 15.6 ± 3.4 | 2.1 ± 0.9 | 5.4 ± 2 | 6.7 ± 0.5 | Clc1ccc2[nH]c(-c3cccc(Nc4ccnc5cc(Cl)ccc45)c3)nc2c1 [Compound 5e, 7-chloro-N-(3-(5-chloro-1H-benzo[d]imidazol-2-yl)phenyl)quinolin-4-amine] | 11.4 to 20.4 | – | 11.4 ± 6.2 | 0.4 to 15.6 | strong antiproliferative activity
2 | > 100 | > 100 | > 100 | > 100 | > 100 | > 100 | 66.2 ± 14.6 | Clc1ccc2c(Nc3cccc(-c4nc5cc(C6=NCCN6)ccc5[nH]4)c3)ccnc2c1 [Compound 5c, 7-chloro-N-(3-(5-(4,5-dihydro-1H-imidazol-2-yl)-1H-benzo[d]imidazol-2-yl)phenyl)quinolin-4-amine trihydrochloride] | > 100 | – | – | – | –
3 | 33.2 ± 5.8 | 52 ± 9.1 | 100 | 56.3 ± 9 | > 100 | 20.8 ± 1.8 | 4.4 ± 1 | O=C(NCCNc1ccnc2cc(Cl)ccc12)c1ccc(-c2nc3cc(C4=NCCN4)ccc3[nH]2)cc1 [Compound 12c, N-(2-(7-chloroquinolin-4-ylamino)ethyl)-4-(5-(4,5-dihydro-1H-imidazol-2-yl)-1H-benzo[d]imidazol-2-yl)benzamide trihydrochloride] | 39.6 ± 2.2 | – | – | – | –
4 | > 100 | > 100 | > 100 | > 100 | > 100 | > 100 | 41.8 ± 8.2 | CC(C)NC(=N)c1ccc2[nH]c(-c3cccc(Nc4ccnc5cc(Cl)ccc45)c3)nc2c1 [Compound 5b, 2-(3-(7-chloroquinolin-4-ylamino)phenyl)-N-isopropyl-1H-benzo[d]imidazole-5-carboximidamide trihydrochloride] | > 100 | – | – | – | –
5 | > 100 | > 100 | > 100 | > 100 | > 100 | > 100 | > 100 | N=C(N)c1ccc2[nH]c(-c3cccc(Nc4ccnc5cc(Cl)ccc45)c3)nc2c1 [Compound 5a, 2-(3-(7-chloroquinolin-4-ylamino)phenyl)-1H-benzo[d]imidazole-5-carboximidamide trihydrochloride] | > 100 | – | – | – | –
6 | 41.8 ± 8.4 | 100 | 24.8 ± 2.2 | 25.4 ± 11.5 | 71.3 ± 11.4 | 43.9 ± 16.2 | 27.6 ± 4.7 | Clc1ccc2c(N3CCN(c4ccc(-c5nc6cc(C7=NCCN7)ccc6[nH]5)cc4)CC3)ccnc2c1 [Compound 8c, 7-chloro-4-(4-(4-(5-(4,5-dihydro-1H-imidazol-2-yl)-1H-benzo[d]imidazol-2-yl)phenyl)piperazin-1-yl)quinoline dihydrochloride] | 30.1 ± 5 | – | – | – | –

More lines, now with the values behind:

Row | SMILES | GI50 [2] [µM] | GI50 [3] [µM] | GI50 [4] [µM] | GI50 [5] [µM] | GI50 [6] [µM] | GI50 [7] [µM] | GI50 [8] [µM] | GI50 [1, 10] [µM] | GI50 ([9]; leukemia and lymphoma cell lines, read-out: GI50 range, leukemia and lymphoma cells) [µM] | GI50 ([1]; 72 h) [µM] | GI50 ([9]; range over tumor cell lines, read-out: GI50 range, tumor cell lines) [µM] | GI50 / inhibitory potential, normal and tumor cells ([9]; over all tested cell lines)
7 | N=C(N)c1ccc2[nH]c(-c3ccc(C(=O)NCCNc4ccnc5cc(Cl)ccc45)cc3)nc2c1 [Compound 12a, 4-(5-carbamimidoyl-1H-benzo[d]imidazol-2-yl)-N-(2-(7-chloroquinolin-4-ylamino)ethyl)benzamide trihydrochloride] | 11.1 ± 3.8 | 24.7 ± 6.2 | 39.1 ± 5.6 | 20 ± 6.8 | > 100 | 8.9 ± 3.3 | 4.1 ± 2 | 21.6 ± 3.2 | – | – | – | –
8 | Clc1ccc2[nH]c(-c3ccc(N4CCN(c5ccnc6cc(Cl)ccc56)CC4)cc3)nc2c1 [Compound 8e, 7-chloro-4-(4-(4-(5-chloro-1H-benzo[d]imidazol-2-yl)phenyl)piperazin-1-yl)quinoline] | 100 | > 100 | 84 ± 7.7 | 41 ± 0.5 | 22.3 ± 7.4 | 13.4 ± 2.6 | 15.6 ± 9.8 | 2.7 ± 0.3 | 13.4 to 41 | – | – | –
9 | O=c1[nH]cc(F)c(=O)[nH]1 [Compound 5-FU, 5-Fluorouracil, reference compound] | 8.2 ± 1.9 | 5.9 ± 0.7 | 30.2 ± 4.7 | > 50 | 76.3 ± 0.5 | > 100 | > 100 | 74 ± 3.1 | – | – | – | –
10 | N=C(N)c1ccc2[nH]c(-c3ccc(N4CCN(c5ccnc6cc(Cl)ccc56)CC4)cc3)nc2c1 [Compound 8a, 2-(4-(4-(7-chloroquinolin-4-yl)piperazin-1-yl)phenyl)-1H-benzo[d]imidazole-5-carboxamidine dihydrochloride] | 36.3 ± 9.6 | > 100 | 20.7 ± 8.6 | 32.1 ± 3.8 | > 100 | 37.7 ± 8.6 | 20.2 ± 6.1 | 42.7 ± 10.8 | – | – | – | –
11 | CC(C)NC(=N)c1ccc2[nH]c(-c3ccc(C(=O)NCCNc4ccnc5cc(Cl)ccc45)cc3)nc2c1 [Compound 12b, 4-(5-(N-isopropylcarbamimidoyl)-1H-benzo[d]imidazol-2-yl)-N-(2-(7-chloroquinolin-4-ylamino)ethyl)benzamide trihydrochloride] | 100 | 38.7 ± 12.4 | 100 | 43.3 ± 17.5 | 100 | 12.8 ± 3.7 | 5.6 ± 2.7 | 42.9 ± 5.1 | – | – | – | –
12 | CC(C)NC(=N)c1ccc2[nH]c(-c3ccc(N4CCN(c5ccnc6cc(Cl)ccc56)CC4)cc3)nc2c1 [Compound 8b, 2-(4-(4-(7-chloroquinolin-4-yl)piperazin-1-yl)phenyl)-N-isopropyl-1H-benzo[d]imidazole-5-carboxamidine dihydrochloride] | 21 ± 1.9 | 100 | 30.9 ± 2.7 | 39.6 ± 9.2 | > 100 | 42.9 ± 8.8 | 26.2 ± 1.6 | 58.8 ± 9.8 | – | – | – | –
